We go through 25 molecules from patent publication US6716878B1, “Antimicrobial agents” (Vernalis (Oxford) Limited, priority 1999, dated 2004).

Structures are written as SMILES. Converted amounts (≈) assume the structure as drawn. Where two headings read alike, the source gives them in different places.

The test system of assay [1] is Staphylococcus capitis (American Type Culture Collection number 35661). The experiment in a line: Minimal inhibitory concentration (MIC) against Staphylococcus capitis, two fold serial dilutions in 2xYT broth. It is filed as cell-based. Conditions: ATCC35661, Staphylococcus capitis ATCC 35661, 37° C., 18 hours, lowest drug concentration that inhibited visible growth, read-out: MIC (S. capitis). On the procedure: (§1) Where MIC values are quoted for the compounds of the examples, those results were obtained by the method described in the Biological Example.
(§2) Minimal inhibitory concentrations (MIC) of inhibitors against E. coli strain DH5α (Genotype; F-φ80d/acZΔM 15Δ(lacZYA-argF)U 169 deoR recA1 endA1 hsdR17(rk^−, mk^+)phoA supE44λ^−thi-1 gyrA96 re/A1) obtained from GibcoBRL Life Technologies, or Staphylococcus capitis (American Type Culture Collection number 35661) were determined as follows. Stock solutions of each test compound were prepared by dissolution of the compound in dimethylsulfoxide at 10 mM. For the determination of the minimal inhibitory concentration, two fold serial dilutions were prepared in 2×YT broth (typtone 16 g/l, yeast extract 10 g/l, sodium chloride 5 g/l obtained from BIO 101 Inc, 1070 Joshua Way, Vista, Calif. 92083, USA) to yield 0.05 ml compound-containing medium per well. Inocula were prepared from cultures grown overnight in 2×YT broth at 37° C. Cell densities were adjusted to absorbance at 660 nm (a660)=0.1; the optical density-standardised preparations were diluted 1:1000 in 2×YT broth; and each well inoculated with 0.05 ml of the diluted bacteria. Microtiter plates were incubated at 37° C. for 18 hours in a humidified incubator. The MIC (μM) was recorded as the lowest drug concentration that inhibited visible growth.

A further assay has as its system E. coli strain DH5α. As to the kind of experiment: Minimal inhibitory concentration (MIC) against E. coli, two fold serial dilutions in 2xYT broth. The class given is cell-based. Conditions: Escherichia coli, read-out: MIC (E. coli). On the procedure:
as §1, §2

Where [2] appears, read: E. coli strain DH5α, 2xYT broth, 37° C., 18 hours, lowest drug concentration that inhibited visible growth.

For the molecule `CCCC[C@H](CN(O)C=O)C(=O)N[C@H](C(=O)c1ccc(N2CCOCC2)cc1)C(C)(C)C` [Example 24, 2(R)-[(N-Formyl-N-hydroxyamino)-methyl]-hexanoic Acid-(2′,2′-dimethyl-1′(S)-(4-morpholin-4-ylbenzoyl)-propyl)amide], the figures for the minimal inhibitory concentration (MIC) (in assay [1]; with E. coli strain DH5α (setting [2])) were 3.1 µM (≈ 1.39 µg/mL) and 6.25 µM (≈ 2.8 µg/mL), respectively.
In the same order, the values of `CCCC[C@H](CN(O)C=O)C(=O)N[C@H](C(=O)c1ccc(N2CCN(C)CC2)cc1)C(C)(C)C` [Example 27, 2(R)-[(N-Formyl-N-hydroxyamino)-methyl]-hexanoic Acid-(2′,2′-dimethyl-1′(S)-[4-(4-methylpiperazin-1-yl)benzoyl]-propyl)amide] are 6.25 µM (≈ 2.88 µg/mL) and 6.25 µM (≈ 2.88 µg/mL).
Turning to `CCCC[C@H](CN(O)C=O)C(=O)N[C@H](C(=O)c1ccc(O)cc1)C(C)(C)C` [Example 12, 2(R)-[(N-Formyl-N-hydroxyamino)-methyl]-hexanoic Acid [1′(S)-(4-hydroxy-benzoyl)-2′,2′-dimethylpropyl]-amide], the figures for the MIC (in assay [1]; in the assay with E. coli strain DH5α (setting [2])) were 12 µM (≈ 4.54 µg/mL) and 6.25 µM (≈ 2.37 µg/mL), respectively.
The like results for `CCCC[C@H](CN(O)C=O)C(=O)N[C@H](C(=O)c1ccc(N2CCN(C3=NCCCN3)CC2)cc1)C(C)(C)C` [Example 29, 2(R)-[(N-Formyl-N-hydroxyamino)-methyl]-hexanoic Acid-(2′,2′-dimethyl-1′(S)-{4-[4-(1,4,5,6-tetrahydropyrimidin-2-yl)-piperazin-1-yl]-benzoyl}-propyl)amide] were, in that order, 6.25 µM (≈ 3.3 µg/mL) and 50 µM (≈ 26.4 µg/mL).
Take `CCCC[C@H](CN(O)C=O)C(=O)N[C@H](C(=O)c1ccc(N)cc1)C(C)(C)C` [Example 20, 2(R)-[(N-Formyl-N-hydroxyamino)-methyl]-hexanoic Acid-(1′(S)-(4-aminobenzoyl)-2′,2′-dimethylpropyl)amide]: the MIC in assay [1] is 12.5 µM (≈ 4.72 µg/mL); in the assay with E. coli strain DH5α (setting [2]), 6.25 µM (≈ 2.36 µg/mL).
The like results for `COc1ccc(C(=O)[C@H](NC(=O)[C@@H](CC2CCCC2)CN(O)C=O)C(C)(C)C)cc1` [Example 17, 3-Cyclopentyl-2(S)-[(N-formyl-N-hydroxyamino)-methyl]-N-[1′(R)-(4-methoxybenzoyl)-2′,2′-dimethylpropyl]propionamide] were, in that order, 25 µM (≈ 10.5 µg/mL) and 100 µM (≈ 41.9 µg/mL).
In the same order, the values of `CCCC[C@H](CN(O)C=O)C(=O)N[C@H](C(=O)c1ccc(N(CCC)CCC)cc1)C(C)(C)C` [Example 30, 2(R)-[(N-Formyl-N-hydroxyamino)-methyl]-hexanoic Acid-(1′(S)-(4-dipropylaminobenzoyl)-2′,2′-dimethylpropyl)amide] are 3.1 µM (≈ 1.43 µg/mL) and 100 µM (≈ 46.2 µg/mL).
In the same order, the values of `CC(C)(C)[C@H](NC(=O)[C@H](CC1CCCC1)CN(O)C=O)C(=O)c1cc2ccccc2o1` [Example 9, N-[1(S)-(Benzofuran-2-carbonyl)-2,2-dimethylpropyl]-3′-cyclopentyl-2′(R)-[(N-formyl-N-hydroxyamino)-methyl]-propionamide] are 0.7 µM (≈ 0.3 µg/mL) and 6.25 µM (≈ 2.68 µg/mL).
Regarding `CCCC[C@H](CN(O)C=O)C(=O)N[C@H](C(=O)c1ccc(NCCC)cc1)C(C)(C)C` [Example 31, 2(R)-[(N-Formyl-N-hydroxyamino)-methyl]-hexanoic Acid-(2′,2′-dimethyl-1′(S)-(4-propylaminobenzoyl)-propyl)amide], the MIC was found to be 3.1 µM (≈ 1.3 µg/mL) in assay [1] and 12.5 µM (≈ 5.24 µg/mL) in the assay on E. coli strain DH5α (setting [2]).
As for `CCCC[C@H](CN(O)C=O)C(=O)N[C@H](C(=O)c1cccn1C)C(C)(C)C` [Example 19, 2(R)-[(N-Formyl-N-hydroxyamino)-methyl]-hexanoic Acid-(2′,2′-dimethyl-1′(S)-(1-methyl-1H-pyrrole-2-carbonyl)-propyl)amide], the MIC (in assay [1]; in the assay on E. coli strain DH5α (setting [2])) was 12.5 µM (≈ 4.57 µg/mL) in each case.
Take `CCCC[C@H](CN(O)C=O)C(=O)N[C@H](C(=O)c1ccc(N2CCN(c3ncccn3)CC2)cc1)C(C)(C)C` [Example 28, 2(R)-[(N-Formyl-N-hydroxyamino)-methyl]-hexanoic Acid-(2′,2′-dimethyl-1′(S)-[4-(4-pyrimidin-2-yl-piperazin-1-yl)-benzoyl]-propyl)amide]: the MIC in assay [1] stood at 1.6 µM (≈ 0.839 µg/mL); with E. coli strain DH5α (setting [2]), 12.5 µM (≈ 6.56 µg/mL).
In the same order, the values of `CCCC[C@H](CN(O)C=O)C(=O)N[C@H](C(=O)c1ccc(F)cc1)C(C)(C)C` [Example 1, 2(R)-[(N-Formyl-N-hydroxyamino)-methyl]-hexanoic Acid-(1′(S)-(4-fluorobenzoyl)-2′,2′-dimethylpropyl)amide] are 25 µM (≈ 9.51 µg/mL) and 12.5 µM (≈ 4.76 µg/mL).
`CCCC[C@H](CN(O)C=O)C(=O)N[C@H](C(=O)c1ccc(NC(C)=O)cc1)C(C)(C)C` [Example 22, 2(R)-[(N-Formyl-N-hydroxyamino)-methyl]-hexanoic Acid-(1′(S)-(4-acetylaminobenzoyl)-2′,2′-dimethylpropyl)amide]: the results for the MIC (in assay [1]; in the assay on E. coli strain DH5α (setting [2])) were 3.1 µM (≈ 1.3 µg/mL) and 12.5 µM (≈ 5.24 µg/mL), respectively.
Regarding `CCCC[C@H](CN(O)C=O)C(=O)N[C@H](C(=O)c1ccc(NC(=O)C(F)(F)F)cc1)C(C)(C)C` [Example 21, 2(R)-[(N-Formyl-N-hydroxyamino)-methyl]-hexanoic Acid-(2′,2′-dimethyl-1′(S)-[4-(2,2,2-trifluoroacetylamino)-benzoyl]-propyl)amide], the MIC (in assay [1]; with E. coli strain DH5α (18 h)) was 6.25 µM (≈ 2.96 µg/mL) in each case.
As to `CCCC[C@H](CN(O)C=O)C(=O)N[C@H](C(=O)c1ccco1)C(C)(C)C` [Example 18, 2(R)-[(N-Formyl-N-hydroxyamino)-methyl]-hexanoic Acid-(1′(S)-(furan-2-carbonyl)-2′,2′-dimethylpropyl)amide], the MIC (in assay [1]; in the assay with E. coli strain DH5α (setting [2])) was 12.5 µM (≈ 4.41 µg/mL) throughout.
As to `CCCC[C@H](CN(O)C=O)C(=O)N[C@H](C(=O)c1ccccn1)C(C)(C)C` [Example 7, 2(R)-[(N-Formyl-N-hydroxyamino)-methyl]-hexanoic Acid-[2,2-dimethyl-1(S)-(pyridine-2-carbonyl)-propyl]-amide], the MIC in assay [1] came out at 50 µM (≈ 18.2 µg/mL); in the assay on E. coli strain DH5α (setting [2]), 12.5 µM (≈ 4.54 µg/mL).
The like results for `CCCC[C@H](CN(O)C=O)C(=O)N[C@H](C(=O)c1nccn1C)C(C)(C)C` [Example 6, 2(R)-[(N-Formyl-N-hydroxyamino)-methyl]-hexanoic Acid-[2,2-dimethyl-1(S)(1-methyl-1H-imidazole-2-carbonyl)-propyl]-amide] were, in that order, 200 µM (≈ 73.3 µg/mL) and 25 µM (≈ 9.16 µg/mL).
In the same order, the values of `CCCC[C@H](CN(O)C=O)C(=O)N[C@H](C(=O)c1ccc(N2CCN(Cc3ccccc3)CC2)cc1)C(C)(C)C` [Example 25, 2(R)-[(N-Formyl-N-hydroxyamino)-methyl]-hexanoic Acid-(1′(S)-[4-(4-benzylpiperazin-1-yl)-benzoyl]-2′,2′-dimethylpropyl)amide] are 3.1 µM (≈ 1.66 µg/mL) and 50 µM (≈ 26.8 µg/mL).
Consider `CCCC[C@H](CN(O)C=O)C(=O)N[C@H](C(=O)c1ccc(OC)cc1OC)C(C)(C)C` [Example 11, 2(R)-[(N-Formyl-N-hydroxyamino)-methyl]-hexanoic Acid [1′-(2,4-dimethoxy-benzoyl)-2′,2′-dimethylpropyl]-amide], for which the MIC (in assay [1]; in the assay with E. coli strain DH5α (setting [2])) was 25 µM (≈ 10.6 µg/mL) in each case.
Regarding `CCCC[C@H](CN(O)C=O)C(=O)N[C@H](C(=O)c1ccc(OC)cc1)C(C)(C)C` [Example 2], the MIC stood at 6.25 µM (≈ 2.45 µg/mL) in assay [1] and 12.5 µM (≈ 4.91 µg/mL) in the assay with E. coli strain DH5α (setting [2]).
Take `CCCC[C@H](CN(O)C=O)C(=O)N[C@H](C(=O)c1ccc(S(C)(=O)=O)cc1)C(C)(C)C` [Example 16, 2(R)-[(N-Formyl-N-hydroxyamino)-methyl]-hexanoic Acid [1′(S)-(4-methanesulfonyl-benzoyl)-2′,2′-dimethyl-propyl]amide]: the MIC amounted to 25 µM (≈ 11 µg/mL) in assay [1] and 6.25 µM (≈ 2.75 µg/mL) with E. coli strain DH5α (setting [2]).
As for `CCCC[C@H](CN(O)C=O)C(=O)N[C@H](C(=O)c1cc2ccccc2o1)C(C)(C)C` [Example 8, 2(R)-[(N-Formyl-N-hydroxyamino)-methyl]-hexanoic Acid-(1′(S)-(benzofuran-2-carbonyl)-2′,2′-dimethylpropyl)amide], the MIC in assay [1] was found to be 1.6 µM (≈ 0.644 µg/mL); in the assay on E. coli strain DH5α (setting [2]), 6.25 µM (≈ 2.52 µg/mL).
The like results for `CCCC[C@H](CN(O)C=O)C(=O)N[C@H](C(=O)c1ccc(NS(C)(=O)=O)cc1)C(C)(C)C` [Example 23, 2(R)-[(N-Formyl-N-hydroxyamino)-methyl]-hexanoic Acid-(1′(S)-(4-methanesulfonylaminobenzoyl)-2′,2′-dimethylpropyl)amide] were, in that order, 3.1 µM (≈ 1.41 µg/mL) and 50 µM (≈ 22.8 µg/mL).
With `CCCC[C@H](CN(O)C=O)C(=O)N[C@H](C(=O)Cc1ccccn1)C(C)(C)C` [Example 15, 2(R)-[(N-Formyl-N-hydroxyamino)-methyl]-hexanoic Acid-(1′(S)-tert-butyl-2′-oxo-3′-pyridin-2-yl-propyl) Amide], the MIC in assay [1] was 100 µM (≈ 37.7 µg/mL).
Turning to `COc1ccc(C(=O)[C@@H](NC(=O)[C@H](CC2CCCC2)CN(O)C=O)C(C)(C)C)cc1` [Example 5, 3-Cyclopentyl-2(R)-[(N-formyl-N-hydroxyamino)-methyl]-N-[1′(S)-(4-methoxybenzoyl)-2′,2′-dimethylpropyl]propionamide], the MIC in assay [1] stood at 1.6 µM (≈ 0.67 µg/mL); with E. coli strain DH5α (setting [2]), 3.1 µM (≈ 1.3 µg/mL).

For orientation: MIC means the smallest concentration in the dilution series that meets the test's criterion for growth inhibition.
